# Test results published in paper PMC7774954, “Interactomic affinity profiling by holdup assay: Acetylation and distal residues impact the PDZome-binding specificity of PTEN phosphatase” (PLoS ONE, 2020).
# Experiments:
# [1] = system: FRMPD4-1; assay: Holdup assay, FRMPD4-1; type: binding, human
# [2] = system: INTU-1; assay: Holdup assay, INTU-1; type: binding, human
# [3] = target: T1, NHERF2 PDZ 1 (Homo sapiens, UniProt Q15599); assay: Holdup assay, NHERF2-1; type: binding; settings: PDZ domain NHERF2-1
# T1 construct: made in house; host or cells: E. coli
# T1 sequence (Q15599 11-90 limits assumed): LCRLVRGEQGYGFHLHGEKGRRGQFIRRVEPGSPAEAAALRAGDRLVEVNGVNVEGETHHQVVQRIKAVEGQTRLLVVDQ
# Method: (§1) The holdup assay was performed on a Tecan freedom Evo200 robot with 384-well plates in singlicate for the three 11-mer PTEN variants and the 13-mer PTEN peptide as described in [31, 32]. Briefly, prior to interaction assay, 2.5 μL of streptavidin resin was saturated in each well with 20 μL of biotinylated PBM peptides (42 μM) and then washed twice with an excess of free biotin, while the reference resin was incubated only with biotin. Right before the holdup experiment, the PDZ library was spiked with an internal standard of lysozyme. Then, the biotin- or PBM-saturated resin was incubated, each in a distinct well of a 384-well plate, with complete cell lysates diluted so that the concentration of the tag-PDZ present in the crude extract is adjusted at 4 μM. After a sufficient time to reach complex equilibrium (15 min.), a fast and mild filtration step is performed and the tag-PDZ concentrations were measured by capillary electrophoresis instrument (LabChip GXII, PerkinElmer, Massachusets, USA). Standard markers were used to convert migration time into molecular weight on the LabChip software and inappropriate molecular weight markers were corrected or excluded.
# (§2) For filtered data, the BI was extracted with the following equation (Eq 1) that estimates the depleted fraction after superimposition of the sample and reference electropherograms: BI=Iref−Ilig/Iref (1) where Iref and Ilig are the intensities of the tag-PDZ peaks measured, for each PDZ domain/PBM peptide interaction pair, in the biotin reference and the PBM electropherograms, respectively.
# (§3) BIs were transformed into dissociation constants (KD) using the following formula: KD=([PDZtot]−BI·[PDZtot])·([PBMtot]−BI·[PDZtot])/BI·[PDZtot] (2) where [PDZtot] and [PBMtot] correspond to the total concentrations of the PDZ domain (usually around 4 μM) and the PBM peptide used during the assay. Since the PBMtot concentration in the resin during the holdup assay parameter may differ from one peptide to another and remains unknown, it is impossible to directly convert BI values into KD constants. We systematically determined the KD constants for a subset of PDZ/PBM pairs by competitive FP. […] For each PBM, the average peptide concentration was calculated after outlier rejection based on the absolute distances from the median as compared to three times the standard deviation (3σ rule), with never more than 2 values rejected.
# [4] = system: MAGI1-1; assay: Holdup assay, MAGI1-1; type: binding, human
# [5] = target: T2, DLG1 PDZ 2 (Homo sapiens, UniProt Q12959); assay: Holdup assay, DLG1-2; type: binding; settings: DLG1-2
# T2 construct: made in house; host or cells: E. coli
# T2 sequence (Q12959 319-405 limits assumed): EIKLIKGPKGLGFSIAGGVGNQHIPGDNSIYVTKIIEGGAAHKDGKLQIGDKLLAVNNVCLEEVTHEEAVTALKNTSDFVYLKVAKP
# Method: as §1, §2, §3
# [6] = system: IL16-4; assay: Holdup assay, IL16-4; type: binding, human
# [7] = system: INADL-1; assay: Holdup assay, INADL-1; type: binding, human
# [8] = target: INADL-6 (Homo sapiens, UniProt Q8NI35); assay: Holdup assay, INADL-6; type: binding
# INADL-6, sequence (Q8NI35 whole entry): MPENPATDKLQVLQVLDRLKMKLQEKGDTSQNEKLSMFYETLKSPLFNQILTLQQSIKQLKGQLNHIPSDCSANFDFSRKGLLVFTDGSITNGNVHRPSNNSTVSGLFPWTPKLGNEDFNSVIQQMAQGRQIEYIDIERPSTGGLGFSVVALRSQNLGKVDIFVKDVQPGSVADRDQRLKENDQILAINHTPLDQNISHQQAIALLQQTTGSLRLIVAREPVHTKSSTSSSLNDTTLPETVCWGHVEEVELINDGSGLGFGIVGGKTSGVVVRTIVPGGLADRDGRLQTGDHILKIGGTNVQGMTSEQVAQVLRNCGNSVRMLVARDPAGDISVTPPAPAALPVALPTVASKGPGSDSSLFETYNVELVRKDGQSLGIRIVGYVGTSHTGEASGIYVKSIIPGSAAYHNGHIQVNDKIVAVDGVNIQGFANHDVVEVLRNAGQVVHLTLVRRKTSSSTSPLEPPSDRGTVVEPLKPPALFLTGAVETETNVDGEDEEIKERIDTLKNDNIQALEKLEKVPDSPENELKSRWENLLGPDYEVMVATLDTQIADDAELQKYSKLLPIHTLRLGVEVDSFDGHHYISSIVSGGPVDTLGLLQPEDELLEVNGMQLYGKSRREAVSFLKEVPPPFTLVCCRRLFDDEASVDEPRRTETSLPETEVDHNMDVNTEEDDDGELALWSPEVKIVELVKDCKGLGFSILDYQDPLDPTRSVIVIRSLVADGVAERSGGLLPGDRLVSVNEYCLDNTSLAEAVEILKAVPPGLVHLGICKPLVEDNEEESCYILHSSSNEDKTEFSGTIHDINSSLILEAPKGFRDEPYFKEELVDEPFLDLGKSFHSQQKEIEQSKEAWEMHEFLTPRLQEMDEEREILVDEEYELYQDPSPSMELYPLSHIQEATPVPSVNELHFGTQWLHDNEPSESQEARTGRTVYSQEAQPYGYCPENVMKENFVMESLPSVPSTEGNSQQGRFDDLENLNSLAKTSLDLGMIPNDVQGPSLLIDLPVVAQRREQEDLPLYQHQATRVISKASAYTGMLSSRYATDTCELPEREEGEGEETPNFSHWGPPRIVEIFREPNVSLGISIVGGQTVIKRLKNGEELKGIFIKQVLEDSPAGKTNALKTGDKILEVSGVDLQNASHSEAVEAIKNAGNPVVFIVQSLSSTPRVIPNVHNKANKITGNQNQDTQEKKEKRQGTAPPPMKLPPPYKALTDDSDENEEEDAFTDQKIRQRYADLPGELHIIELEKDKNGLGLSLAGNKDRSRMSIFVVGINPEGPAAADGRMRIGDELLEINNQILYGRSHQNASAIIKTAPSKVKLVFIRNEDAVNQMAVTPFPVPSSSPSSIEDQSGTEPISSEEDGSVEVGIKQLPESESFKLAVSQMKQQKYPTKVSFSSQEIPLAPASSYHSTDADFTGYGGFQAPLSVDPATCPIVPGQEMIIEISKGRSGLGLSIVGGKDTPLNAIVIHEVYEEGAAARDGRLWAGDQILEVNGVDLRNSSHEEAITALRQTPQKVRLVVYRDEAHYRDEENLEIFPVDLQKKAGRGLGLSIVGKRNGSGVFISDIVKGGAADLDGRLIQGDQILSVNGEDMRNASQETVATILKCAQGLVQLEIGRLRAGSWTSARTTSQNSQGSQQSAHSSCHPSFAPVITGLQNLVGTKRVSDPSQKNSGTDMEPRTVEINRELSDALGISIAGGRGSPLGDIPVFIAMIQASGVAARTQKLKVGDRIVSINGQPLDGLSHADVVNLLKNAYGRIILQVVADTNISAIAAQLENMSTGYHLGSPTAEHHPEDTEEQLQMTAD
# [9] = target: DLG2-1 (Homo sapiens, UniProt Q15700); assay: Holdup assay, DLG2-1; type: binding; settings: DLG2-1
# [10] = target: MAGI1-5 (Homo sapiens, UniProt Q96QZ7); assay: Holdup assay, MAGI1-5; type: binding
# MAGI1-5, sequence (Q96QZ7 970-1066): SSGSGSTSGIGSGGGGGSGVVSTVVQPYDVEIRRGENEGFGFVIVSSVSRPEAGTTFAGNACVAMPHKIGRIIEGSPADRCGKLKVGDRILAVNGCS
# [11] = target: T3, MAGI2 PDZ 2 (Homo sapiens, UniProt Q86UL8); assay: Holdup assay, MAGI2-2; type: binding; settings: MAGI2-2
# T3 construct: made in house; host or cells: E. coli
# T3 sequence (Q86UL8 426-510 limits assumed): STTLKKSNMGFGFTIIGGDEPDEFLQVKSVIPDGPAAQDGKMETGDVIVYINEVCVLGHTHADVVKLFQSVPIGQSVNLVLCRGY
# Method: as §1, §2, §3
# [12] = target: GORASP2-1 (Homo sapiens, UniProt Q9H8Y8); assay: Holdup assay, GORASP2-1; type: binding
# [13] = system: FRMPD1-1; assay: Holdup assay, FRMPD1-1; type: binding, human
# [14] = system: CARD14-1; assay: Holdup assay, CARD14-1; type: binding, human
# [15] = system: LIN7A-1; assay: Holdup assay, LIN7A-1; type: binding, human
# [16] = system: LIN7B-1; assay: Holdup assay, LIN7B-1; type: binding, human
# [17] = target: T4, MAST3 PDZ 1 (Homo sapiens, UniProt O60307); assay: Holdup assay, MAST3-1; type: binding; settings: MAST3-1
# T4 construct: made in house; host or cells: E. coli
# T4 sequence (O60307 950-1038 limits assumed): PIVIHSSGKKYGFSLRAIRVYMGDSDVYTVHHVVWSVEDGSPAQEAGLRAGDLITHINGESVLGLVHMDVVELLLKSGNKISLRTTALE
# Method: as §1, §2, §3
# [18] = system: GRIP2-5; assay: Holdup assay, GRIP2-5; type: binding, human
# [19] = system: IL16-1; assay: Holdup assay, IL16-1; type: binding, human
# [20] = target: GRASP-1 (Homo sapiens, UniProt Q7Z6J2); assay: Holdup assay, GRASP-1; type: binding
# GRASP-1, sequence (Q7Z6J2 100-189): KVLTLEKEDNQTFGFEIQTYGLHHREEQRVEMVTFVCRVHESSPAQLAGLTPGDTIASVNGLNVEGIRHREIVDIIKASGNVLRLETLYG
# [21] = system: APBA2-2; assay: Holdup assay, APBA2-2; type: binding, human
# [22] = system: DLG5-2; assay: Holdup assay, DLG5-2; type: binding, human
# [23] = system: DLG1-3; assay: Holdup assay, DLG1-3; type: binding, human
structure (smiles),measurement,setting,value
CC[C@H](C)[C@H](NC(=O)[C@H](CCC(N)=O)NC(=O)[C@@H](NC(=O)[C@H](Cc1c[nH]cn1)NC(=O)[C@H](CCC(N)=O)NC(=O)[C@H](CC(=O)O)NC(=O)[C@H](CCC(=O)O)NC(=O)[C@H](CC(=O)O)NC(=O)CCC(=O)NCCCOCCOCCOCCCNC(=O)CCCC[C@@H]1SC[C@@H]2NC(=O)N[C@@H]21)[C@@H](C)O)C(=O)N[C@H](C(=O)N[C@@H](CCCCN)C(=O)N[C@H](C(=O)O)C(C)C)[C@@H](C)O [PTEN_11],BI,[1],-0.004
same,LogKD,[1],3.519
same,BI,[2],-0.089
same,LogKD,[2],3.519
same,BI,[3],0.099
same,BI,[4],0.001
same,LogKD,[4],3.519
same,BI,[5],0.09
same,BI,[6],-0.028
same,LogKD,[6],3.519
same,BI,[7],0.022
same,LogKD,[7],3.519
same,BI,[8],0.077
same,LogKD,[8],3.519
same,BI,[9],0.034
same,LogKD,[9],3.519
same,BI,[10],0.536
same,Kd,[10],27.6 µM
same,BI,[11],0.18
same,Kd,[12],48 µM
same,BI,[12]; GORASP2-1,0.403
same,BI,[13],0.017
same,LogKD,[13],3.519
same,BI,[14],-0.077
same,LogKD,[14],3.519
same,BI,[15],-0.017
same,LogKD,[15],3.519
same,BI,[16],-0.046
same,LogKD,[16],3.519
same,BI,[17],0.122
same,BI,[18],0.055
same,LogKD,[18],3.519
same,BI,[19],-0.017
same,LogKD,[19],3.519
same,Kd,[20],33.1 µM
same,BI,[20]; GRASP-1,0.492
same,BI,[21],-0.01
same,LogKD,[21],3.519
same,BI,[22],0.001
same,LogKD,[22],3.519
same,BI,[23],0.044
same,LogKD,[23],3.519
